Test results as given in ChEMBL document CHEMBL1201862, “PubChem BioAssay data set” (2004).
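Exposure lasted 48 hours, with cells grown in 96-well plates and compounds tested at five concentrations. GI50 is the concentration that inhibits growth by half.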 Activity calls are given as the source filed them. Rule as the data show it: active = GI50 up to about 1.1 µM and inactive = higher.

Assays:
Experiment in all cases: NCI-60 cell line screen, 48 h
[1] = system: BT-549
[2] = system: RPMI-8226
[3] = system: HOP-62
[4] = system: K562
[5] = system: M14
[6] = system: IGROV-1
[7] = system: MDA-MB-435
[8] = system: SN12C
[9] = system: SNB-75
[10] = system: U-251
[11] = system: NCI-H522
[12] = system: A498
[13] = system: MDA-N
[14] = system: OVCAR-5
[15] = system: NCI-H460
[16] = system: SW-620
[17] = system: SK-MEL-2
[18] = system: COLO 205
[19] = system: T47D
[20] = system: OVCAR-3

Measured: GI50

Cn1c(=O)c2nc(SCCN3CCOCC3)[nH]c2n(C)c1=S
inactive: [1] > 100 µM | [2] > 100 µM | [3] > 100 µM | [4] > 100 µM | [5] > 100 µM | [6] > 100 µM | [7] > 100 µM | [8] > 100 µM | [9] > 100 µM | [10] > 100 µM | [11] > 100 µM | [12] > 100 µM | [13] > 100 µM | [14] > 100 µM | [15] > 100 µM | [16] > 100 µM | [17] > 100 µM | [18] > 100 µM | [19] > 100 µM | [20] > 100 µM

CCOC(=O)CCC(NC(=O)OCc1ccccc1)C(=O)NNC(=O)OC(C)(C)C (stereo not given)
inactive: [1] > 100 µM | [2] > 100 µM | [3] > 100 µM | [4] > 100 µM | [5] > 100 µM | [6] > 100 µM | [7] > 100 µM | [8] > 100 µM | [9] > 100 µM | [10] > 100 µM | [11] > 100 µM | [12] > 100 µM | [13] > 100 µM | [14] > 100 µM | [15] > 100 µM | [16] > 100 µM | [17] > 100 µM | [18] > 100 µM | [19] > 100 µM | [20] > 100 µM
